{"source": "patent US7998940B2", "about": "“Aptamers to von Willebrand factor and their use as thrombotic disease therapeutics” (Archemix Corp., priority 2004, dated 2011)", "key": {"[1]": {"test_system": "vWF dependent platelet plug formation, human whole blood", "experiment": "PFA-100 assay, human whole blood", "type": "cell-based", "settings": "for ~IC95 PFA-100 (nM) with citrated human whole blood: minimum concentration that extends closing time to 300 seconds", "excerpt": "Another assay of this Example, using the PFA-100 instrument, is an agonist independent but vWF dependent assay that uses the PFA-100 instrument (Harrison et al., Clin. Lab. Haem., v24, p 225-32 (2002)). The PFA-100 simulates the formation of a hemostatic plug under conditions of high shear force in vivo by recording the time required for a platelets to aggregate and block the flow of citrated whole blood through a microscopic aperture in a membrane coated with collagen and either epinephrine or ADP. This activity is von Willebrand factor dependent as high MW vWF multimers bind to immobilized collagen on the membrane and then bind to and activate platelets because of the shear force induced by drawing the blood through the microscopic aperture.\nFresh whole blood was collected from healthy non-steroidal anti-inflammatory drug (NSAID) free cynomolgus macaques. Aptamers were diluted with physiological saline from Aldon (Cat#9420306) in no-additive vacutainer tubes (Cat#366434, Becton Dickenson). Samples were loaded onto collagen/epinephrine test cartridges (Cat#B4170-20A, Dade Behring) which were used in the PFA-100 machine (Dade Behring). Trigger solution (Cat#B4170-50, Dade Behring) was used in the self-test and to pre-wet the test cartridges. O-ring cleaning pads (Cat#B4170-73, Dade Behring) were used in the self-test and in the O-ring cleaning process.\nA self-test, which included an O-ring cleaning process, was always run on the PFA-100 machine before running any samples to ensure proper function of the machine.\nDuring the entire experiment, the tubes of whole blood were gently inverted every five minutes to prevent settling.\nIn order to assay the titration of aptamer in whole blood, the aptamer was added to no-additive vacutainer tubes and diluted to the desired concentrations (ex: 0 nM, 1 nM to 1000 nM) using physiological saline such that the final volume was […]. When the PFA-100 was ready to run the next set of samples, 1940 μl of whole blood was added to the tube containing a concentration of aptamer. This tube was gently inverted three times to thoroughly mix the aptamer and blood. Samples were always run in duplicate on the PFA-100 machine. 800 μl of this blood mixture was loaded into the collagen/epinephrine test cartridges. The test cartridges were loaded onto the PFA-100 machine. The time of occlusion of the aperture was measured by the PFA-100, with a maximal time of 300 seconds. We estimate the IC95 in this assay to be the minimum concentration of aptamer that extends the closing time to 300 seconds."}, "[2]": {"experiment": "pharmacokinetics after 3 mg/kg IV in cynomolgus macaques (Oligreen, HPLC)", "type": "in vivo", "description": "ARC1368 (SEQ ID NO 291), 1779 (SEQ ID NO 320) and 1780 (SEQ ID NO 321) (as described in Example 2 above) were injected intravenously into cynomolgus macaques (n=3/group) at a dosage of 3 mg/kg which was expected to yield an instantaneous plasma concentration of 3 uM, approximately 30-fold higher than the putative effective dose. Subsequently, citrated blood samples were collected at regular intervals and processed for plasma.\nSubsequently, plasma aptamer concentrations were determined using the Oligreen assay (Gray et al., Antisense and Nucleic Acid Drug Development 7 (3):133-140 (1997). The data were subsequently analyzed using the program WinNonlin to yield the pharmacokinetic parameters listed in Tables 29 to 31 below.\nFollowing the Oligreen assay analysis, plasma aptamer concentrations were determined for the animals dosed with ARC1779 (SEQ ID NO 320) using a validated HPLC-based assay. The HPLC data were analyzed via noncompartmental and 2-compartment analysis using the program WinNonlin."}, "[3]": {"test_system": "intra-arterial thrombosis of carotid arteries", "experiment": "cynomolgus macaque electrolytic thrombosis model", "type": "in vivo, cynomolgus monkeys", "description": "A study was performed to test the efficacy of ARC1779 (SEQ ID NO 320) in inhibiting intra-arterial thrombosis in a well documented non-human primate electrolytic thrombosis model. See, e.g., Rote et al., Stroke, 1994: 25, 1223-1233.\nEach animal was anesthetized prior to surgical preparation, intubated and maintained in anesthesia with isoflurane inhalant anesthetic to effect delivered through a volume-regulated respirator. An intravenous catheter was also placed in a peripheral vein for administration of lactated Ringer's solution during the procedure.\nA catheter was placed in the femoral artery of each animal for continuous monitoring of arterial blood pressure. Similarly a catheter was placed in the femoral vein for blood sample collection. Each carotid artery was instrumented with a Doppler flow probe connected to a flow meter. The flow probes were placed around the artery at a point proximal to the insertion of the intra-arterial electrode and stenosis. The stenosis was placed around each carotid artery so that the […] was reduced by approximately 50% to 60% without altering the mean […]. Blood flow in the carotid arteries was monitored and recorded continuously throughout the observation periods.\nElectrolytic injury to the intimal surface of each carotid artery was accomplished via placement of an intravascular electrode. Each electrode was connected to the positive pole of a constant current device and cathode connected to a distant subcutaneous site. Continuous current was delivered to each vessel for a period of 3 hours or for 30 minutes after complete occlusion, whichever was shorter.\nOnce the electrodes were placed on the right carotid artery (“RCA”) the animal was administered the test article as indicated in Table 32 above. Approximately 15 minutes after test article administration, the electrical current was applied at 100 μA. Blood samples and CBT measurements were collected at the time points specified in Blood Sample Collection Schedule as indicated in FIG. 31. The current was terminated ˜30 minutes after the blood flow signal remained stable at zero flow (which indicates an occlusive thrombus had been formed at the site) or after 180 minutes of electrical stimulation. Approximately 195 minutes after the test article was administered, the left carotid artery (“LCA”) had electrical current administered in a similar fashion as previously described for the RCA. After termination of all surgical procedures and sample collection each animal was euthanized.\nAn additional 10 cynomolgus monkeys (2.5 to 3.5 kg) were divided into treatment groups 5 to 7 and were treated according the regimen indicated in Table 33 below.\nThe animal procedure for each treatment group in Table 33 was conducted as reported for the animals in Example 5B."}, "[4]": {"test_system": "full length human vWF (SEQ ID NO 7)", "experiment": "dot blot KD determination and extent of binding, full length human vWF", "settings": "for % binding @ 100 nM vWF: extent of aptamer binding at 100 nM full length human vWF; for binding to human vWF: in words", "procedure": "Based on this initial screen, KDs were determined for 3 of the vWF dependent binding sequences using the dot blot assay. […] A 12 point protein titration was used in the dot blot assay (300 nM, 100 nM, 30 nM, 10 nM, 3 nM, 1 nM, 300 pM, 100 pM, 30 pM, 10 pM, 3 pM, 0 pM) in 1×DPBS plus 0.1 mg/mL BSA at room temperature for 30 minutes.\nAn 8 point protein titration was used in the dot blot binding assay (100n M, 30 nM, 10 nM, 3 nM, 1 nM, 300 pM, 100 pM, 0 pM)) in 1× Dulbecco's PBS containing 0.1 BSA (final volume of 50 uL) for 30 minutes at room temperature."}, "[5]": {"experiment": "not given", "remark": "listed apart in the source"}, "[6]": {"test_system": "rabbit vWF A1 domain (SEQ ID NO 6)", "sequence (as listed by the source)": "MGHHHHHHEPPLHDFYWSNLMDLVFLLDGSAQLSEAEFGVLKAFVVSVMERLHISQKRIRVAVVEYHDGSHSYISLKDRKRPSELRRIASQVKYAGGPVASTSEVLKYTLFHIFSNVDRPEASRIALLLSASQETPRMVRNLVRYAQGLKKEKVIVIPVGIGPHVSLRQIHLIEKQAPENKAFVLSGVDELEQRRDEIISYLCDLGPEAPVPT", "experiment": "dot blot KD determination, rabbit vWF A1 domain", "type": "binding", "settings": "dot blot, 12 point protein titration, 1xDPBS plus 0.1 mg/mL BSA, room temperature, 30 minutes", "procedure": "A 12 point protein titration was used in the dot blot assay (300 nM, 100 nM, 30 nM, 10 nM, 3 nM, 1 nM, 300 pM, 100 pM, 30 pM, 10 pM, 3 pM, 0 pM) in 1×DPBS plus 0.1 mg/mL BSA at room temperature for 30 minutes."}, "[7]": {"settings": "3 mg/kg IV, monkeys, Oligreen assay, noncompartmental, individual animals 2101, 2103, 2104"}, "[8]": {"settings": "3 mg/kg IV, monkeys, Oligreen assay, noncompartmental, mean of 3 animals"}, "[9]": {"settings": "Phase 3 modification, full length human vWF, dot blot, 8 point protein titration, read-out: KD"}, "[10]": {"settings": "Phase 4 and 5 modification, full length human vWF, read-out: KD"}, "[11]": {"settings": "cynomolgus monkey, in vivo, iv, 3 mg/kg"}}, "note": "Where “and” joins values, the source holds several entries; their conditions need not be identical. Identical values can stand only once. Like-named read-outs stand apart in the source and are kept apart here. [invdT] = inverted (3'-3') thymidine; d = 2'-deoxy (DNA); m = 2'-O-methyl", "data": [{"molecule": "PEG20K-NH2-mGmCmGmUdGdCdAmGmUmGmCmCmUmUmCmGmGmCdCmG-s-TmGdCdGdGTmGmCdCmUdCdCmGmUdCmAmCmGmC-3T [ARC1779]", "values": [{"measurement": "~IC95 PFA-100 (nM) with citrated human whole blood", "setting": "[1]", "result": "~100", "unit": "nM"}, {"measurement": "distribution half-life (t1/2α)", "setting": "[2]; 3 mg/kg IV, HPLC-based assay", "result": 1.4, "unit": "h"}, {"measurement": "elimination half-life (t1/2β)", "setting": "[2]; 3 mg/kg IV, HPLC-based assay", "result": 12.9}, {"measurement": "distribution phase α-half-life", "setting": "[2]; 3 mg/kg IV, Oligreen assay", "result": "~2", "unit": "h"}, {"measurement": "AUClast", "setting": "[2]; [7]", "result": "309.245 µg·h/mL and 336.59 µg·h/mL and 235.503 µg·h/mL"}, {"measurement": "Cmax", "setting": "[2]; [7]", "result": "69.065 µg/mL and 65.717 µg/mL and 70.344 µg/mL"}, {"measurement": "MRTlast", "setting": "[2]; [7]", "result": "5.27 h and 4.66 h and 2.69 h"}, {"measurement": "Tmax", "setting": "[2]; [7]", "result": "0.25 hr (2×) and 0.50 hr"}, {"measurement": "AUClast, Mean", "setting": "[2]; [8]", "result": 293.779, "unit": "µg·h/mL"}, {"measurement": "Cmax, Mean", "setting": "[2]; [8]", "result": 68.375, "unit": "µg/mL"}, {"measurement": "MRTlast, Mean", "setting": "[2]; [8]", "result": 4.21, "unit": "h"}, {"measurement": "Tmax, Mean", "setting": "[2]; [8]", "result": 0.33, "unit": "h"}, {"measurement": "concentration-time profile", "setting": "[2]; in words, 3 mg/kg IV, HPLC method", "result": "biphasic"}, {"measurement": "pharmacokinetic profile", "setting": "[2]; in words, 3 mg/kg IV, mean concentration-time profile, OliGreen assay", "result": "mainly monophasic"}, {"measurement": "thrombus formation", "setting": "[3]; in words, sequential 180-minute electrical injuries to the carotid arteries", "result": "inhibited thrombus formation"}, {"measurement": "carotid arteries that developed occlusive thrombi", "setting": "[3]; infusion targeted to constant plasma level of 300 nM", "result": 100, "unit": "%"}, {"measurement": "carotid arteries that developed occlusive thrombi", "setting": "[3]; infusion targeted to constant plasma level of 500 nM", "result": 63, "unit": "%"}, {"measurement": "carotid arteries that developed occlusive thrombi", "setting": "[3]; infusion targeted to constant plasma level of 750 nM", "result": 25, "unit": "%"}, {"measurement": "carotid arteries that developed occlusive thrombi", "setting": "[3]; infusion targeted to constant plasma level of 1000 nM", "result": 0, "unit": "%"}]}, {"molecule": "dGdGdCdGTdGdCdAdGTdGdCdCTTdCdGdGdCdCdGTdGdCdGdGTdGdCdCTdCdCdGTdCdAdCdGdCdC-3T (DNA GGCGTGCAGTGCCTTCGGCCGTGCGGTGCCTCCGTCACGCC; DNA, [invdT] at 3' end, backbone and methylation of C not given here) [ARC1172]", "values": [{"measurement": "% binding @ 100 nM vWF", "setting": "[4]; Phase 1 modification", "result": 37, "unit": "%"}, {"measurement": "Kd", "setting": "[4]; Phase 1 modification, full length human vWF, dot blot, 8 point protein titration, read-out: KD", "result": 2, "unit": "nM"}, {"measurement": "% binding @ 100 nM vWF", "setting": "[4]; Phase 3 modification", "result": 37, "unit": "%"}, {"measurement": "Kd", "setting": "[4]; [9]", "result": 2, "unit": "nM"}, {"measurement": "% binding @ 100 nM vWF", "setting": "[4]; Phase 4 and 5 modification", "result": 37, "unit": "%"}, {"measurement": "Kd", "setting": "[4]; [10]", "result": 2, "unit": "nM"}, {"measurement": "binding to human vWF", "setting": "[4]; dot blot", "result": "shown to bind"}, {"measurement": "~IC95 PFA-100 (nM) with citrated human whole blood", "setting": "[1]", "result": "~100", "unit": "nM"}, {"measurement": "T½ Human plasma", "result": 17, "unit": "h"}, {"measurement": "T½ Rat plasma", "setting": "[5]", "result": 3, "unit": "h"}]}, {"molecule": "mGmCmGmUdGdCdAmGmUmGmCmCmUmUmCmGmGmCdCmG-s-TmGdCdGdGTmGmCdCmUdCdCmGmUdCmAmCmGmC-3T (GCGUGCAGUGCCUUCGGCCGTGCGGTGCCUCCGUCACGC; sugars from the 5' end mmmmdddmmmmmmmmmmmdmdmddddmmdmddmmdmmmm, [invdT] at 3' end, backbone not given here) [ARC1368]", "values": [{"measurement": "% binding @ 100 nM vWF", "setting": "[4]; Phase 3 modification", "result": 38.2, "unit": "%"}, {"measurement": "Kd", "setting": "[4]; [9]", "result": 1.8, "unit": "nM"}, {"measurement": "% binding @ 100 nM vWF", "setting": "[4]; Phase 4 and 5 modification", "result": 38.2, "unit": "%"}, {"measurement": "Kd", "setting": "[4]; [10]", "result": 1.8, "unit": "nM"}, {"measurement": "binding to human vWF", "setting": "[4]; dot blot", "result": "affinity identical (within experimental error) to that of the parent compound"}, {"measurement": "~IC95 PFA-100 (nM) with citrated human whole blood", "setting": "[1]", "result": "~100", "unit": "nM"}, {"measurement": "potency in PFA-100 assay", "setting": "[1]; in words, human whole blood", "result": "potency comparable to ReoPrO™"}, {"measurement": "AUC0-last, Mean", "setting": "[2]; [11]", "result": 25224, "unit": "ng·h/mL"}, {"measurement": "MRTlast, Mean", "setting": "[2]; [11]", "result": 4.48, "unit": "h"}, {"measurement": "distribution phase", "setting": "[2]; [11]", "result": "rapid distribution phase"}, {"measurement": "pharmacokinetic profile", "setting": "[2]; [11]", "result": "mainly monophasic"}, {"measurement": "T½ Human plasma", "result": 63, "unit": "h"}, {"measurement": "T½ Rat plasma", "setting": "[5]", "result": 21, "unit": "h"}]}, {"molecule": "AMX237.G6: DNA SELEX 2 aptamer clone (nucleic acid, DNA, backbone and methylation of C not given here, DNA SELEX 2 aptamer clone) DNA: CTACCTACGATCTGACTAGCGTGCAGTGCCTATTCCAGGCCGTGCGGTGCCTCCGTCACGCTTACTCTCATGTAGTTCC", "values": [{"measurement": "Kd", "setting": "[4]; dot blot, 12 point protein titration, 1xDPBS plus 0.1 mg/mL BSA, room temperature, 30 minutes, read-out: full length human vWF KD", "result": 0.2, "unit": "nM"}, {"measurement": "Kd", "setting": "[6]", "result": 47, "unit": "nM"}]}]}
